The text below walks through data of paper PMC6199744, “Development of Chemical Proteomics for the Folateome and Analysis of the Kinetoplastid Folateome” (ACS Infectious Diseases, 2018).

Holding throughout (type): binding
For test [1], the target named is T1, HeLa cell extract proteins (Homo sapiens, UniProt Q9UK99).
T1 construct: endogenous in cells; host or cells: HeLa cell extract
T1 sequence (Q9UK99 1-471): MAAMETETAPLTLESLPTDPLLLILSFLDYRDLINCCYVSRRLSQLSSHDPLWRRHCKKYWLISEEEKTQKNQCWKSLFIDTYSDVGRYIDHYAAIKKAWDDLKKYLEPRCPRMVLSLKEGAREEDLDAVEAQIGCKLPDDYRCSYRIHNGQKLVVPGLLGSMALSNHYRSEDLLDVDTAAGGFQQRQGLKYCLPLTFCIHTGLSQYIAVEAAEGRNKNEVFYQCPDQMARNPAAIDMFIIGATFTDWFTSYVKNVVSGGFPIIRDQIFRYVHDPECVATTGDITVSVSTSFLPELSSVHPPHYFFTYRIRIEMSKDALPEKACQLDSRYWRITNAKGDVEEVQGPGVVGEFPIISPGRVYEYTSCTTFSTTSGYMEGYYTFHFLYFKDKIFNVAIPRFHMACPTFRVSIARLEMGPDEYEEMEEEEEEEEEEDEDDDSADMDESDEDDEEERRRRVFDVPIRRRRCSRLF

For test [2], the target named is T2, HeLa cell extract proteins (Homo sapiens, UniProt Q07021).
T2 construct: endogenous in cells; host or cells: HeLa cell extract
T2 sequence (Q07021 74-282): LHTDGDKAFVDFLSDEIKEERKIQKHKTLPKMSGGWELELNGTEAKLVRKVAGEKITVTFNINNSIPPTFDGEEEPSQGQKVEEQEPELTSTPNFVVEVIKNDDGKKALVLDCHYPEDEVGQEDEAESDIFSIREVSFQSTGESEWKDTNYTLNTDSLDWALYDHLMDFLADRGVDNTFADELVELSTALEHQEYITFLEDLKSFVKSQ

For test [3], the target named is T3, HeLa cell extract proteins (Homo sapiens, UniProt P49915).
T3 construct: endogenous in cells; host or cells: HeLa cell extract

In test [4] the target is T4, HeLa cell extract proteins (Homo sapiens, UniProt Q9Y678).
T4 construct: endogenous in cells; host or cells: HeLa cell extract
T4 sequence (Q9Y678 1-874): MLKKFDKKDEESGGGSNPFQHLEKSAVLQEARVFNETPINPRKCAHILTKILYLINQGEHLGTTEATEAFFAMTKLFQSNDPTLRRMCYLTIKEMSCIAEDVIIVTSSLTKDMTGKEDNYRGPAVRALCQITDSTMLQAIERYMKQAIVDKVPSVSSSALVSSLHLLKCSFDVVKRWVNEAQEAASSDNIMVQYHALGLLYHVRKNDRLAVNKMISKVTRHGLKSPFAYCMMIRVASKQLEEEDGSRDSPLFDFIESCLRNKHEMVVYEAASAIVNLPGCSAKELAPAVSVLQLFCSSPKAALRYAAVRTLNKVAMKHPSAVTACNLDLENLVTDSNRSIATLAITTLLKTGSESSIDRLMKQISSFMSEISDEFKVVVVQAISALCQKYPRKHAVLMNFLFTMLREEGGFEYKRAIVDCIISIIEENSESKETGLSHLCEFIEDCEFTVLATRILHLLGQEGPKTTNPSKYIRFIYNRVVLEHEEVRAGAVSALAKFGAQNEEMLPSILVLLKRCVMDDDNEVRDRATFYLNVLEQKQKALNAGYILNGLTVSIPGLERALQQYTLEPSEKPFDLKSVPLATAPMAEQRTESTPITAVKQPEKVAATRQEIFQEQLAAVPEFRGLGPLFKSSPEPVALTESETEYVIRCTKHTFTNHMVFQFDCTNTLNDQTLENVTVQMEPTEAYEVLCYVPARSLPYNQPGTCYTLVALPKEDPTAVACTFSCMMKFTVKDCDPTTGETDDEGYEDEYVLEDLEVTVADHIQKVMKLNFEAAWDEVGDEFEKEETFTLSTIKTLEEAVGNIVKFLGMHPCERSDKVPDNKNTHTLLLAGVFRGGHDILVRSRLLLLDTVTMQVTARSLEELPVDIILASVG

For test [5], the target named is T5, HeLa cell extract proteins (Homo sapiens, UniProt P04080).
T5 construct: endogenous in cells; host or cells: HeLa cell extract
T5 sequence (P04080 1-98): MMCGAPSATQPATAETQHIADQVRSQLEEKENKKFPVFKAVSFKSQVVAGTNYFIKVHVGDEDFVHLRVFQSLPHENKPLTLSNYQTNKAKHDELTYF

In test [6] the target is T6, HeLa cell extract proteins (Homo sapiens, UniProt Q9Y244).
T6 construct: endogenous in cells; host or cells: HeLa cell extract
T6 sequence (Q9Y244 1-141): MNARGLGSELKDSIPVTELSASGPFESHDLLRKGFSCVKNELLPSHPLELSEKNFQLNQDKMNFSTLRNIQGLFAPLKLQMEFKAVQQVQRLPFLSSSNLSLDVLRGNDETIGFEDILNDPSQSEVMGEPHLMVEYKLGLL

Test [7] has as its target T7, HeLa cell extract proteins (Homo sapiens, UniProt P23921).
T7 construct: endogenous in cells; host or cells: HeLa cell extract
T7 sequence (P23921 1-792): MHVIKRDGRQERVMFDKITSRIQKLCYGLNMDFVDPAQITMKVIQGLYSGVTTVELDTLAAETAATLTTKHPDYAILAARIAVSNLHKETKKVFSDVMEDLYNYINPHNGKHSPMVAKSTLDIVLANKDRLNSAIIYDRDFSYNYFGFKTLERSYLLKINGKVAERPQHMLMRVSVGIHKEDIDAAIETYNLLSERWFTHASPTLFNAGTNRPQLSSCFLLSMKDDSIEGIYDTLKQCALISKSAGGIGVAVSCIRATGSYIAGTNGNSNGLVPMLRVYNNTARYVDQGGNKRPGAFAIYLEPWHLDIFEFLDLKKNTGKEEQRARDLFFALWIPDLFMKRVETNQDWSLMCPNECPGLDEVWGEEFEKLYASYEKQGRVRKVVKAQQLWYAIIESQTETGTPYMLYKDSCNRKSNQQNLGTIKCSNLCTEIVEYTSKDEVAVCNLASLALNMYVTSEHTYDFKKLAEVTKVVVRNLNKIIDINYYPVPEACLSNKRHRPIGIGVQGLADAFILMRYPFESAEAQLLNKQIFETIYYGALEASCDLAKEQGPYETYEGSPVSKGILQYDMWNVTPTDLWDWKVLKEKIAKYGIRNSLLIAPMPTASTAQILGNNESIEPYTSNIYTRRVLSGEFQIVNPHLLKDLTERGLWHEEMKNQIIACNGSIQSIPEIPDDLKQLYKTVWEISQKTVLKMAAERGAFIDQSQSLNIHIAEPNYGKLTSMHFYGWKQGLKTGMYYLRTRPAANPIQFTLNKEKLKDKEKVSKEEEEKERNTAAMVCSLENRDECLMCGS

[8] abbreviates: HeLa, protein FBXO3 (ISOFORM 1 OF F-BOX ONLY PROTEIN 3).

Where two headings read alike, the source gives them in different places.

T3 sequence (P49915 whole entry): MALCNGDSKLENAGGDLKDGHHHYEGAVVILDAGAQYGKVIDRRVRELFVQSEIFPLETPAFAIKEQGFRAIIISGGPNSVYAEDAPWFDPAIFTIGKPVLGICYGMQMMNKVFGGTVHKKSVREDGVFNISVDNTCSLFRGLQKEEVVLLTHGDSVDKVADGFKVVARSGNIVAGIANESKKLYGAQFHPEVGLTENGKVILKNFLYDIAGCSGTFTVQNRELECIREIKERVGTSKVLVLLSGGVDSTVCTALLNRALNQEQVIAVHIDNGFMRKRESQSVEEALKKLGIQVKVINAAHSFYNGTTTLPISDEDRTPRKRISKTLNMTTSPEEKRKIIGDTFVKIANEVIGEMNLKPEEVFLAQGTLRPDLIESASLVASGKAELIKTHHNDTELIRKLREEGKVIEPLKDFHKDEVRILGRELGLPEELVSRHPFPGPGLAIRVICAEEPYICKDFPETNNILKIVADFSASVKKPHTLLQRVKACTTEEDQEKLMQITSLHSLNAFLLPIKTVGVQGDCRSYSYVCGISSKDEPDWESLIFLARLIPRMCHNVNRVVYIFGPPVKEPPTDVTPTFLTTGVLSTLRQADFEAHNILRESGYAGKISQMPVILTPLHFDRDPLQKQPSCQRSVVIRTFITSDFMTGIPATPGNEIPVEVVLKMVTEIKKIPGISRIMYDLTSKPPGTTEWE

Consider `Nc1nc2c(c(=O)[nH]1)N(C=O)C(CNc1ccc(C(=O)N[C@@H](CCC(=O)O)C(=O)O)cc1)CN2` (stereo partly shown) [LEU, leucovorin], for which the “fold changes relative to vehicle control” value in test [1] (setting [8]) was 1.11; in test [2] (HeLa, protein C1QBP), 0.85; in test [3] (HeLa, protein GMPS) it was 0.93; in test [4] (protein COPG, HeLa) it was 0.91; in test [5] (HeLa, protein CSTB), 1.07; in test [6] (protein POMP, HeLa), 0.72. The “fold changes relative to vehicle control” value in test [7] (HeLa, protein RRM1) is recorded as 0.99.
Take `Nc1nc2[nH]cc(CCc3ccc(C(=O)N[C@@H](CCC(=O)O)C(=O)O)cc3)c2c(=O)[nH]1` [PTX, pemetrexed]: the “fold changes relative to vehicle control” value was found to be 1.04 in test [1]; 0.92 in test [2]; 0.99 in test [3]; 0.95 in test [4]; 1.26 in test [5]; 0.83 in test [6]. The “fold changes relative to vehicle control” value in test [7] was determined as 1.05.
Turning to `CCCCCCOc1ccc(Cc2cnc(N)nc2N)cc1` [compound 1], the “fold changes relative to vehicle control” value turned out to be 0.98 in test [1] (protein FBXO3, HeLa); 1.12 in test [2] (protein C1QBP, HeLa); 1.37 in test [3] (protein GMPS, HeLa); 0.93 in test [4] (protein COPG, HeLa); 1.08 in test [5] (HeLa, protein CSTB); 0.66 in test [6] (captured protein POMP, HeLa). The “fold changes relative to vehicle control” value in test [7] (protein RRM1, HeLa) is 1.05.
`CCCCCCOc1cccc(Cc2cnc(N)nc2N)c1` [compound 2]: the “fold changes relative to vehicle control” value in test [1] (protein FBXO3, HeLa) was determined as 1.05; in test [2] (protein C1QBP, HeLa), 1.27; in test [3] (protein GMPS, HeLa), 1.94; in test [4] (protein COPG, HeLa) it was 1.39; in test [5] (HeLa, protein CSTB), 0.99; in test [6] (captured protein POMP, HeLa) it was 0.89. For the same compound, in test [7] (protein RRM1, HeLa), the “fold changes relative to vehicle control” value was determined as 1.29.
As to `Nc1nc2cccc(-c3ccccc3)c2n1Cc1ccc(Cl)c(Cl)c1` [compound 3], the “fold changes relative to vehicle control” value in test [1] (protein FBXO3, HeLa) was determined as 0.91; in test [2] (protein C1QBP, HeLa), 1; in test [3] (protein GMPS, HeLa), 0.96; in test [4] (protein COPG, HeLa), 1.14; in test [5] (HeLa, protein CSTB), 1.17; in test [6] (captured protein POMP, HeLa) it was 0.86. The “fold changes relative to vehicle control” value in test [7] (protein RRM1, HeLa) worked out at 0.89.
Take `NCCOCCOCC(=O)Nc1nc2ncc(CNc3ccc(C(=O)NC(CCC(=O)O)C(=O)O)cc3)nc2c(=O)[nH]1` (stereo not shown) [compound 6]: the “fold changes relative to vehicle control” value amounted to 1.01 in test [1] (setting [8]); 0.92 in test [2] (HeLa, protein C1QBP); 1.24 in test [3] (HeLa, protein GMPS); 1.03 in test [4] (protein COPG, HeLa); 1.29 in test [5] (HeLa, protein CSTB); 0.86 in test [6] (protein POMP, HeLa). In addition, the “fold changes relative to vehicle control” value in test [7] (HeLa, protein RRM1) came to 1.06.
Take `NCCCNc1ccc(C(=O)NC(CCC(=O)O)C(=O)O)cc1` (stereo not shown) [compound 7]: the “fold changes relative to vehicle control” value in test [1] (setting [8]) came to 0.99; in test [2] (HeLa, protein C1QBP), 0.78; in test [3] (HeLa, protein GMPS), 1.11; in test [4] (protein COPG, HeLa), 1.03; in test [5] (HeLa, protein CSTB), 1.24; in test [6] (protein POMP, HeLa) it was 0.85. In test [7] (HeLa, protein RRM1), the “fold changes relative to vehicle control” value is 0.96.
